# Data as given in US12187713B2, “Immunomodulators, compositions and methods thereof” (Betta Pharmaceuticals Co., Ltd, priority 2019, dated 2025).
# Biological target: PD-1/PD-L1 (Homo sapiens (Human), UniProt Q9NZQ7)
# Assay: PD-1/PD-L1 Binding Assay (Alphascreen)
# How it was run: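 PD-1/PD-L1 binding detected by anti-6×His acceptor and streptavidin donor beads after 120 min in the dark at 25 °C. Beforehand, the two proteins were incubated 15 min at 25 °C with inhibitor at 0.015–300 nM (1% DMSO). IC50 comes from a log concentration–response curve.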
# PD-1/PD-L1, sequence (Q9NZQ7 19-238): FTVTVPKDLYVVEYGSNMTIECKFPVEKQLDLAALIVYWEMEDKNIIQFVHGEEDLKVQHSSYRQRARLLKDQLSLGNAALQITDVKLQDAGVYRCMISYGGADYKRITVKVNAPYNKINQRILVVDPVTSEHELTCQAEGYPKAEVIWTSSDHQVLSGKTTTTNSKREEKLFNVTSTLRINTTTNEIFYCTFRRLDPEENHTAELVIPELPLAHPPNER
IC50 (range symbols) [nM],IC50 (numeric values) [nM],Compound
0.1 to 5,–,Cc1c(COc2cc(OCc3cccc(C#N)c3)c(CN3CCC[C@H]3C(=O)O)cc2Cl)cccc1-c1cccc(-c2nc3cc(CN4CCC[C@H]4C(=O)O)c(OC(F)F)cc3o2)c1C [Example 211]
–,0.88,"Cc1c(-c2nc3cc(CN4CCC[C@@H]4C(=O)O)c(OC(F)F)cc3o2)cccc1-c1cccc(-c2nc3cc(CN4CCC(C)C4)cc(C(F)(F)F)c3o2)c1C (stereo partly drawn) [Example 90, ((6-(difluoromethoxy)-2-(2,2′-dimethyl-3′-(5-((3-methylpyrrolidin-1-yl)methyl)-7-(trifluoromethyl)benzo [d]oxazol-2-yl)-[1,1′-biphenyl]-3-yl)benzo[d]oxazol-5-yl)methyl)-D-proline]"
0.1 to 5,–,"Cc1c(-c2nc3cc(CN4CCC4C)c(OC(F)F)cc3o2)cccc1-c1cccc(-c2nc3cc(CN4CCC[C@H]4C(=O)O)c(OC(F)F)cc3o2)c1C (stereo partly drawn) [Example 60, ((6-(difluoromethoxy)-2-(3′-(6-(difluoromethoxy)-5-((2-methylazetidin-1-yl)methyl)benzo[d]oxazol-2-yl)-2,2′-dimethyl-[1,1′-biphenyl]-3-yl)benzo[d]oxazol-5-yl)methyl)-L-proline]"
0.1 to 5,–,"Cc1c(Nc2nccc3cc(CN4CCC(O)C4)cnc23)cccc1-c1cccc(-c2nc3cc(CN4CC[C@H](C(=O)O)C4)c(OC(F)F)cc3o2)c1C (stereo partly drawn) [Example 180, (3S)-1-((6-(difluoromethoxy)-2-(3′-((3-((3-hydroxypyrrolidin-1-yl)methyl)-1,7-naphthyridin-8-yl)amino)-2,2′-dimethyl-[1,1′-biphenyl]-3-yl)benzo[d]oxazol-5-yl)methyl)pyrrolidine-3-carboxylic acid]"
0.1 to 5,–,"Cc1c(-c2nc3cc(CN4CCC[C@H]4C(=O)O)c(OC(F)F)cc3o2)cccc1-c1cccc(-c2nc3cc(CN4CC5(CCC(=O)N5)C4)cc(C#N)c3o2)c1C [Example 151, ((2-(3′-(7-cyano-5-((6-oxo-2,5-diazaspiro[3.4]octan-2-yl)methyl)benzo [d]oxazol-2-yl)-2,2′-dimethyl-[1,1′-biphenyl]-3-yl)-6-(difluoromethoxy)benzo[d]oxazol-5-yl)methyl)-L-proline]"
–,0.37,"Cc1c(-c2nc3c(o2)CNC3)cccc1-c1cccc(-c2nc3cc(CN4CCC[C@H]4C(=O)O)c(OC(F)F)cc3o2)c1C [Example 202, ((6-(difluoromethoxy)-2-(3′-(5,6-dihydro-4H-pyrrolo[3,4-d]oxazol-2-yl)-2,2′-dimethyl-[1,1′-biphenyl]-3-yl)benzo[d]oxazol-5-yl)methyl)proline]"
–,26,Cc1c(-c2nc3cc(CN4CCCC4)c(F)cc3[nH]2)cccc1-c1cccc(-c2nc3cc(CN4CCC[C@H]4C(=O)O)c(OC(F)F)cc3o2)c1C [Example 297]
–,3.9,"Cc1c(Nc2nccc3cc(CN4CC(O)C4)cnc23)cccc1-c1cccc(-c2nc3cc(CN4CCC[C@H]4C(=O)O)c(OC(F)F)cc3o2)c1C [Example 178, ((6-(difluoromethoxy)-2-(3′-((3-((3-hydroxyazetidin-1-yl)methyl)-1,7-naphthyridin-8-yl)amino)-2,2′-dimethyl-[1,1′-biphenyl]-3-yl)benzo[d]oxazol-5-yl)methyl)proline]"
0.1 to 5,–,"Cc1c(-c2nc3cc(CN(C)C)c(OCc4ccc(S(C)(=O)=O)cc4)cc3o2)cccc1-c1cccc(-c2nc3cc(CN4CCC[C@H]4C(=O)O)c(OC(F)F)cc3o2)c1C [Example 126, ((6-(difluoromethoxy)-2-(3′-(5-((dimethylamino)methyl)-6-((4-(methylsulfonyl)benzyl)oxy)benzo[d]oxazol-2-yl)-2,2′-dimethyl-[1,1′-biphenyl]-3-yl)benzo[d]oxazol-5-yl)methyl)-L-proline]"
–,0.6,"CCNCc1cc2nc(-c3cccc(-c4cccc(-c5nc6cc(CN7CCC[C@H]7C(=O)O)c(OC(F)F)cc6o5)c4C)c3C)oc2cc1F [Example 96, ((6-(difluoromethoxy)-2-(3′-(5-((ethylamino)methyl)-6-fluorobenzo[d]oxazol-2-yl)-2,2′-dimethyl-[1,1′-biphenyl]-3-yl)benzo[d]oxazol-5-yl)methyl)-L-proline]"
